This is an account of results in the supplement of paper PMC10307832.

Common to all, as to experiment: relative viability (nuclei count vs DMSO), 5 days (fraction); higher = more cells survive
Compound in the test “BI-D1870 + Luminespib”: CC(C)CCN1c2nc(Nc3cc(F)c(O)c(F)c3)ncc2N(C)C(=O)C1C [BI-D1870] + CCNC(=O)c1noc(-c2cc(C(C)C)c(O)cc2O)c1-c1ccc(CN2CCOCC2)cc1 [Luminespib] (partner 0.01 µM)
In outline: (§1)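 Lung cancer cell lines were seeded in 1536-well plates and dosed by pin tool the next day, with either a single drug or a fixed anchor-drug dose combined with five library-drug doses (not always all listed) spaced in √10 steps. Five days later, one step fixed the cells and stained their nuclei (final 0.05% Triton X-100, 1% formaldehyde, 1 ug/ml Hoechst), and nuclei were counted on 4× images. Relative viability is the nuclei count in treated wells divided by the count in vehicle wells, and each value is the median of duplicate plates.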

Compound in the test “BI-D1870 + Phenformin”: CC(C)CCN1c2nc(Nc3cc(F)c(O)c(F)c3)ncc2N(C)C(=O)C1C [BI-D1870] + N=C(N)NC(=N)NCCc1ccccc1 [Phenformin] (partner 250 µM)
In outline: as §1

Compound in the test “BI-D1870 + Decitabine”: CC(C)CCN1c2nc(Nc3cc(F)c(O)c(F)c3)ncc2N(C)C(=O)C1C [BI-D1870] + Nc1ncn([C@H]2C[C@H](O)[C@@H](CO)O2)c(=O)n1 [Decitabine] (partner 2 µM)
In outline: as §1

Compound in the test “Zebularine + Linsitinib”: O=c1ncccn1[C@@H]1O[C@H](CO)[C@@H](O)[C@H]1O [Zebularine] + C[C@]1(O)C[C@@H](c2nc(-c3ccc4ccc(-c5ccccc5)nc4c3)c3c(N)nccn32)C1 [Linsitinib] (partner 1 µM)
In outline: as §1

Consider RERF-LC-KJ, for which the relative viability with BI-D1870 + Luminespib (first compound 0.04 µM) amounted to 1.42; in the test with BI-D1870 + Luminespib (first compound 0.1265 µM) it was 1.16; in the test with BI-D1870 + Luminespib (first compound 0.4 µM) it was 1.22; with BI-D1870 + Luminespib (first compound 1.265 µM), 1.3; in the test with BI-D1870 + Luminespib (first compound 4 µM), 0.552; with BI-D1870 + Phenformin (first compound 0.04 µM), 0.422. Besides, the relative viability with BI-D1870 + Phenformin (first compound 0.1265 µM) amounted to 0.396; in the test with BI-D1870 + Phenformin (first compound 0.4 µM) it was 0.407; in the test with BI-D1870 + Phenformin (first compound 1.265 µM), 0.435; with BI-D1870 + Phenformin (first compound 4 µM), 0.285; with BI-D1870 + Decitabine (first compound 0.04 µM), 0.661; with BI-D1870 + Decitabine (first compound 0.1265 µM), 0.671. Also, the relative viability in the test with BI-D1870 + Decitabine (first compound 0.4 µM) was found to be 0.675; with BI-D1870 + Decitabine (first compound 1.265 µM), 0.745; with BI-D1870 + Decitabine (first compound 4 µM), 0.519; with Zebularine + Linsitinib (first compound 1 µM), 0.99; with Zebularine + Linsitinib (first compound 3.162 µM) it was 0.916; with Zebularine + Linsitinib (first compound 31.62 µM), 1.01. For the same cell line, the relative viability with Zebularine + Linsitinib (first compound 100 µM) stood at 1.03.

Consider A-427, for which the relative viability with BI-D1870 + Luminespib (first compound 0.04 µM) worked out at 1.06; with BI-D1870 + Luminespib (first compound 0.1265 µM), 0.764; with BI-D1870 + Luminespib (first compound 0.4 µM), 0.77; in the test with BI-D1870 + Luminespib (first compound 1.265 µM), 1.11; with BI-D1870 + Luminespib (first compound 4 µM), 0.879; with BI-D1870 + Phenformin (first compound 0.04 µM) it was 0.41. For the same cell line, the relative viability in the test with BI-D1870 + Phenformin (first compound 0.1265 µM) is 0.308; with BI-D1870 + Phenformin (first compound 0.4 µM), 0.306; with BI-D1870 + Phenformin (first compound 1.265 µM) it was 0.379; with BI-D1870 + Phenformin (first compound 4 µM), 0.347; with BI-D1870 + Decitabine (first compound 0.04 µM) it was 0.573; in the test with BI-D1870 + Decitabine (first compound 0.1265 µM), 0.499. Further, the relative viability with BI-D1870 + Decitabine (first compound 0.4 µM) is 0.561; in the test with BI-D1870 + Decitabine (first compound 1.265 µM) it was 0.685; with BI-D1870 + Decitabine (first compound 4 µM), 0.638; with Zebularine + Linsitinib (first compound 1 µM), 1.12; in the test with Zebularine + Linsitinib (first compound 3.162 µM), 1.08; with Zebularine + Linsitinib (first compound 10 µM), 0.855. Besides, the relative viability with Zebularine + Linsitinib (first compound 31.62 µM) was 0.513; with Zebularine + Linsitinib (first compound 100 µM) it was 0.256.

Regarding NCI-H441, the relative viability with BI-D1870 + Luminespib (first compound 0.04 µM) stood at 0.474; in the test with BI-D1870 + Luminespib (first compound 0.1265 µM) it was 0.267; in the test with BI-D1870 + Luminespib (first compound 0.4 µM), 0.359; in the test with BI-D1870 + Luminespib (first compound 1.265 µM), 0.394; with BI-D1870 + Luminespib (first compound 4 µM), 0.412; in the test with BI-D1870 + Phenformin (first compound 0.04 µM) it was 1.02. Further, the relative viability came out at 0.832 with BI-D1870 + Phenformin (first compound 0.1265 µM); 0.74 in the test with BI-D1870 + Phenformin (first compound 0.4 µM); 1.17 with BI-D1870 + Phenformin (first compound 1.265 µM); 0.872 with BI-D1870 + Phenformin (first compound 4 µM); 0.249 in the test with BI-D1870 + Decitabine (first compound 0.04 µM); 0.273 with BI-D1870 + Decitabine (first compound 0.1265 µM). For the same cell line, the relative viability with BI-D1870 + Decitabine (first compound 0.4 µM) was determined as 0.275; with BI-D1870 + Decitabine (first compound 1.265 µM), 0.255; in the test with BI-D1870 + Decitabine (first compound 4 µM), 0.312; with Zebularine + Linsitinib (first compound 1 µM), 0.581; in the test with Zebularine + Linsitinib (first compound 3.162 µM) it was 0.548; with Zebularine + Linsitinib (first compound 10 µM) it was 0.291. Further, the relative viability in the test with Zebularine + Linsitinib (first compound 31.62 µM) turned out to be 0.249; with Zebularine + Linsitinib (first compound 100 µM), 0.234.

NCI-H1703: the relative viability amounted to 0.633 with Zebularine + Linsitinib (first compound 1 µM); 0.512 in the test with Zebularine + Linsitinib (first compound 3.162 µM); 0.644 with Zebularine + Linsitinib (first compound 10 µM); 0.941 with Zebularine + Linsitinib (first compound 31.62 µM); 0.525 with Zebularine + Linsitinib (first compound 100 µM).

NCI-H1792: the relative viability came out at 0.505 with BI-D1870 + Luminespib (first compound 0.04 µM); 0.432 in the test with BI-D1870 + Luminespib (first compound 0.1265 µM); 0.393 with BI-D1870 + Luminespib (first compound 0.4 µM); 0.592 in the test with BI-D1870 + Luminespib (first compound 1.265 µM); 0.344 with BI-D1870 + Luminespib (first compound 4 µM); 0.361 with BI-D1870 + Phenformin (first compound 0.04 µM). In addition, the relative viability was 0.289 in the test with BI-D1870 + Phenformin (first compound 0.1265 µM); 0.259 in the test with BI-D1870 + Phenformin (first compound 0.4 µM); 0.504 in the test with BI-D1870 + Phenformin (first compound 1.265 µM); 0.508 with BI-D1870 + Phenformin (first compound 4 µM); 0.558 with BI-D1870 + Decitabine (first compound 0.04 µM); 0.525 with BI-D1870 + Decitabine (first compound 0.1265 µM). Further, the relative viability amounted to 0.596 in the test with BI-D1870 + Decitabine (first compound 0.4 µM); 0.851 with BI-D1870 + Decitabine (first compound 1.265 µM); 0.666 with BI-D1870 + Decitabine (first compound 4 µM); 0.571 with Zebularine + Linsitinib (first compound 1 µM); 0.441 with Zebularine + Linsitinib (first compound 3.162 µM); 0.541 with Zebularine + Linsitinib (first compound 10 µM). The figures for the relative viability in the test with Zebularine + Linsitinib (first compound 31.62 µM) and in the test with Zebularine + Linsitinib (first compound 100 µM) were 0.267 and 0.296, respectively.

For the cell line Calu-6, the relative viability amounted to 1.03 in the test with Zebularine + Linsitinib (first compound 1 µM); 0.946 with Zebularine + Linsitinib (first compound 3.162 µM); 0.734 with Zebularine + Linsitinib (first compound 10 µM); 0.864 with Zebularine + Linsitinib (first compound 31.62 µM); 0.209 with Zebularine + Linsitinib (first compound 100 µM).

Turning to SK-LU-1, the relative viability in the test with BI-D1870 + Luminespib (first compound 0.04 µM) is 0.178; with BI-D1870 + Luminespib (first compound 0.1265 µM), 0.17; in the test with BI-D1870 + Luminespib (first compound 0.4 µM), 0.207; with BI-D1870 + Luminespib (first compound 1.265 µM), 0.224; in the test with BI-D1870 + Luminespib (first compound 4 µM), 0.179; with BI-D1870 + Phenformin (first compound 0.04 µM) it was 0.505. Also, the relative viability with BI-D1870 + Phenformin (first compound 0.1265 µM) is 0.525; in the test with BI-D1870 + Phenformin (first compound 0.4 µM), 0.514; with BI-D1870 + Phenformin (first compound 1.265 µM), 0.63; with BI-D1870 + Phenformin (first compound 4 µM) it was 0.358; in the test with BI-D1870 + Decitabine (first compound 0.04 µM) it was 0.653; with BI-D1870 + Decitabine (first compound 0.1265 µM), 0.607. The relative viability with BI-D1870 + Decitabine (first compound 0.4 µM) worked out at 0.652; in the test with BI-D1870 + Decitabine (first compound 1.265 µM) it was 0.604; with BI-D1870 + Decitabine (first compound 4 µM) it was 0.536; with Zebularine + Linsitinib (first compound 1 µM) it was 1.21; with Zebularine + Linsitinib (first compound 3.162 µM), 0.936; in the test with Zebularine + Linsitinib (first compound 10 µM) it was 0.588. Also, the relative viability came out at 0.611 in the test with Zebularine + Linsitinib (first compound 31.62 µM) and 0.564 in the test with Zebularine + Linsitinib (first compound 100 µM).

For the cell line PC-3 [JPC-3], the relative viability with BI-D1870 + Luminespib (first compound 0.04 µM) came to 0.783; with BI-D1870 + Luminespib (first compound 0.1265 µM), 0.645; with BI-D1870 + Luminespib (first compound 0.4 µM), 0.717; in the test with BI-D1870 + Luminespib (first compound 1.265 µM), 0.825; with BI-D1870 + Luminespib (first compound 4 µM), 0.677; with BI-D1870 + Phenformin (first compound 0.04 µM) it was 0.514. The relative viability was 0.485 with BI-D1870 + Phenformin (first compound 0.1265 µM); 0.482 with BI-D1870 + Phenformin (first compound 0.4 µM); 0.498 with BI-D1870 + Phenformin (first compound 1.265 µM); 0.484 with BI-D1870 + Phenformin (first compound 4 µM); 0.867 in the test with BI-D1870 + Decitabine (first compound 0.04 µM); 0.867 with BI-D1870 + Decitabine (first compound 0.1265 µM). For the same cell line, the relative viability was 0.849 with BI-D1870 + Decitabine (first compound 0.4 µM); 0.944 with BI-D1870 + Decitabine (first compound 1.265 µM); 0.728 with BI-D1870 + Decitabine (first compound 4 µM); 1.05 with Zebularine + Linsitinib (first compound 1 µM); 0.956 with Zebularine + Linsitinib (first compound 3.162 µM); 0.843 in the test with Zebularine + Linsitinib (first compound 10 µM). The relative viability in the test with Zebularine + Linsitinib (first compound 31.62 µM) amounted to 0.856; with Zebularine + Linsitinib (first compound 100 µM), 0.492.
